Assay results published in article PMC8389922, “First-in-Class Cyclic Temporin L Analogue: Design, Synthesis, and Antimicrobial Assessment” (Journal of Medicinal Chemistry, 2021).
In brackets after ≈: the same amount, converted by molar mass. Bridge positions count the residues as written; N and C are the ends. Square brackets hold non-standard residues; d marks the D form. Triazole bridges read from a SMILES are 1,4-linked. Peptide text beside a SMILES is read from it. Lys(N3) = [N-]=[N+]=NCCCC[C@H](N)C(=O)O; dPra = C#CC[C@@H](N)C(=O)O; Pra = C#CC[C@H](N)C(=O)O

How the values were obtained:
[1] = system: S. aureus ATCC 25923; type: cell-based, Staphylococcus aureus
Experimental: (§1) The antimicrobial activity of peptides 9–26 was assessed against a range of reference bacterial strains such as S. aureus ATCC 25923, Staphylococcus epidermidis ATCC 12228, Bacillus megaterium Bm11, E. coli ATCC 25922, P. aeruginosa ATCC 27853, and A. baumannii ATCC 19606 by the broth microdilution assay to determine the minimal growth inhibitory concentration (MIC, Table 1).[59] First, we evaluated the effects produced by the lactam bridge between Lys and Glu residues placed at different positions along the peptide sequence of reference 9. […] When the i,i+7 cyclization strategy was applied (20–23), a dramatic decrease of bacterial inhibition activity was observed. Specifically, the peptides 20, 22, and 23 only affected the microbial growth of the Gram-positive B. megaterium Bm11, at 12.5 μM. […] Peptide 25, which differs from 9 by the presence of an olefin bridge rather than lactam one, dramatically lost the activity (MIC > 100 μM) vs both Gram-positive and Gram-negative strains.
(§2) The determination of MICs was conducted as previously reported.[61] Aliquots of 50 μL of bacterial culture appropriately diluted were added to each well of a 96-well plate to reach a final cell density of 1 × 10^6 CFU/mL and a final peptide concentration ranging from 100 to 0.78 μM (final volume 100 μL).

[2] = system: S. epidermidis ATCC 12228; type: cell-based, Staphylococcus epidermidis
Experimental: as §1, §2

[3] = system: B. megaterium Bm11; type: cell-based, Bacillus megaterium
Experimental: as §1, §2

[4] = system: E. coli ATCC 25922; type: cell-based, Escherichia coli
Experimental: as §1, §2

[5] = system: P. aeruginosa ATCC 27853; type: cell-based, Pseudomonas aeruginosa
Experimental: as §1, §2

[6] = system: A. baumannii ATCC 19606; type: cell-based, Acinetobacter baumannii
Experimental: as §1, §2

| SMILES | MIC S. aureus ATCC 25923 [1] [µM] | MIC S. epidermidis ATCC 12228 [2] [µM] | MIC B. megaterium Bm11 [3] [µM] | MIC E. coli ATCC 25922 [4] [µM] | MIC P. aeruginosa ATCC 27853 [5] [µM] | MIC A. baumannii ATCC 19606 [6] [µM] |
| --- | --- | --- | --- | --- | --- | --- |
| CC[C@H](C)[C@@H]1NC(=O)[C@H](CCCNC(=N)N)NC(=O)CNC(=O)[C@@H](CC(C)C)NC(=O)[C@H](Cc2ccccc2)NC(=O)[C@H](CCCCN)NC(=O)[C@@H](NC(=O)[C@H](Cc2ccccc2)NC(=O)[C@H](Cc2c[nH]c3ccccc23)NC(=O)[C@@H]2CCCN2C(=O)[C@@H](NC(=O)[C@@H](N)Cc2ccccc2)C(C)C)Cc2cn(nn2)CCCC[C@@H](C(N)=O)NC1=O [compound 22] (H-FVPWF[Pra]KF[dL]GRI[Lys(N3)]-NH2; triazole 6-13) | >100 | >100 | 12.5 (≈ 20.7 µg/mL) | >100 | >100 | 100 (≈ 166 µg/mL) |
| CC[C@H](C)[C@H](NC(=O)[C@H](CCCNC(=N)N)NC(=O)CNC(=O)[C@@H](CC(C)C)NC(=O)[C@@H]1CCCCn2cc(nn2)C[C@H](NC(=O)[C@@H]2CCCN2C(=O)[C@@H](NC(=O)[C@@H](N)Cc2ccccc2)C(C)C)C(=O)N[C@@H](Cc2ccccc2)C(=O)N[C@@H](CO)C(=O)N[C@@H](CCCCN)C(=O)N1)C(=O)N[C@@H](CC(C)C)C(N)=O [compound 19] (H-FVP[Pra]FSK[Lys(N3)][dL]GRIL-NH2; triazole 4-8) | >100 | >100 | 12.5 (≈ 19.1 µg/mL) | >100 | >100 | >100 |
| CC(C)C[C@H](NC(=O)[C@@H]1CCC(=O)NCCCC[C@H](NC(=O)[C@H](CCCCN)NC(=O)[C@H](CO)NC(=O)[C@H](Cc2ccccc2)NC(=O)[C@H](Cc2c[nH]c3ccccc23)NC(=O)[C@@H]2CCCN2C(=O)[C@@H](NC(=O)[C@@H](N)Cc2ccccc2)C(C)C)C(=O)N[C@H](CC(C)C)C(=O)NCC(=O)N[C@@H](CCCNC(=N)N)C(=O)N1)C(N)=O [compound 11] (H-FVPWFSKK[dL]GREL-NH2; lactam 8-12) | >100 | >100 | 50 (≈ 79.4 µg/mL) | >100 | >100 | >100 |
| CC[C@H](C)[C@@H]1NC(=O)[C@H](CCCNC(=N)N)NC(=O)CNC(=O)[C@H](NC(=O)[C@H](Cc2ccccc2)NC(=O)[C@H](CCCCN)NC(=O)[C@H](CO)NC(=O)[C@H](Cc2ccccc2)NC(=O)[C@H](Cc2c[nH]c3ccccc23)NC(=O)[C@@H]2CCCN2C(=O)[C@@H](NC(=O)[C@@H](N)Cc2ccccc2)C(C)C)Cc2cn(nn2)CCCC[C@@H](C(N)=O)NC1=O [compound 15] (H-FVPWFSKF[dPra]GRI[Lys(N3)]-NH2; triazole 9-13) | >100 | >100 | 25 (≈ 40.8 µg/mL) | >100 | >100 | 100 (≈ 163 µg/mL) |
| CC[C@H](C)[C@@H]1NC(=O)[C@H](CCCNC(=N)N)NC(=O)CNC(=O)[C@@H](CC(C)C)NC(=O)[C@H](Cc2ccccc2)NC(=O)[C@H](CCCCN)NC(=O)[C@@H](NC(=O)[C@H](Cc2ccccc2)NC(=O)[C@H](Cc2c[nH]c3ccccc23)NC(=O)[C@@H]2CCCN2C(=O)[C@@H](NC(=O)[C@@H](N)Cc2ccccc2)C(C)C)CCCCNC(=O)CC[C@@H](C(N)=O)NC1=O [compound 20] (H-FVPWFKKF[dL]GRIE-NH2; lactam 6-13) | >100 | >100 | 12.5 (≈ 20.6 µg/mL) | >100 | >100 | >100 |
| CC(C)C[C@H](NC(=O)[C@@H]1CCCCn2cc(nn2)C[C@H](NC(=O)[C@H](CCCCN)NC(=O)[C@H](CO)NC(=O)[C@H](Cc2ccccc2)NC(=O)[C@H](Cc2c[nH]c3ccccc23)NC(=O)[C@@H]2CCCN2C(=O)[C@@H](NC(=O)[C@@H](N)Cc2ccccc2)C(C)C)C(=O)N[C@H](CC(C)C)C(=O)NCC(=O)N[C@@H](CCCNC(=N)N)C(=O)N1)C(N)=O [compound 16] (H-FVPWFSK[Pra][dL]GR[Lys(N3)]L-NH2; triazole 8-12) | >100 | >100 | 25 (≈ 39.9 µg/mL) | 50 (≈ 79.9 µg/mL) | >100 | 25 (≈ 39.9 µg/mL) |
